Results as given in US10633419B2, “Immunomodulators” (BRISTOL-MYERS SQUIBB COMPANY, priority 2014, dated 2020).
Where two headings read alike, the source gives them in different places. Positions of bridges follow the written chain, without caps; N, C: chain ends. Non-standard residues stand in square brackets, D forms with d. Residues, ends and D or L forms follow the SMILES beside them. *: point of attachment. δOrn(Nα-Octadecanedioyl) = O=C(O)CCCCCCCCCCCCCCCCC(=O)N[C@@H](CCCN*)C(=O)O; X18 = O=C(O)CCCCCCCCCCCCCCC(=O)N[C@@H](CC(=O)NCCCOCCOCCOCCCN*)C(=O)O; Trp(1-CH2COOH) = N[C@@H](Cc1cn(CC(=O)O)c2ccccc12)C(=O)O; Phe(4-F) = N[C@@H](Cc1ccc(F)cc1)C(=O)O; NH(CH2)12COOH = O=C(O)CCCCCCCCCCCCN*; Hyp = O=C(O)[C@@H]1C[C@@H](O)CN1; dHyp = O=C(O)[C@H]1C[C@H](O)CN1; NMeNle = CCCC[C@H](NC)C(=O)O; Pip = O=C(O)[C@@H]1CCCCN1; NMeA = CN[C@@H](C)C(=O)O; Aun = NCCCCCCCCCCC(=O)O; Dab = NCC[C@H](N)C(=O)O; Dap = NC[C@H](N)C(=O)O

Target: T1, PD-L1 (Homo sapiens, UniProt Q9NZQ7)
T1 construct: hPDL1(19-239)-TVMV-His; made in house; host or cells: HEK293T
Assay: PD-1/PD-L1 Homogenous Time-Resolved Fluorescence (HTRF) binding assay (PD-1-Ig/PD-L1-His)
From the text: The ability of the macrocyclic peptides of the present disclosure to bind to PD-L1 was investigated using a PD-1/PD-L1 Homogenous Time-Resolved Fluorescence (HTRF) binding assay.
Homogenous Time-Resolved Fluorescence (HTRF) Assays of Binding of Soluble PD-1 to Soluble PD-L1. Soluble PD-1 and soluble PD-L1 refers to proteins with carboxyl-end truncations that remove the transmembrane-spanning regions and are fused to heterologous sequences, specifically the Fc portion of the human immunoglobuling G sequence (Ig) or the hexahistidine epitope tag (His). All binding studies were performed in an HTRF assay buffer consisting of dPBS supplemented with 0.1% (w/v) bovine serum albumin and 0.05% (v/v) Tween-20. For the PD-1-Ig/PD-L1-His binding assay, inhibitors were pre-incubated with PD-L1-His (10 nM final) for 15 m in 4 μl of assay buffer, followed by addition of PD-1-Ig (20 nM final) in 1 μl of assay buffer and further incubation for 15m. PD-L1 fusion proteins from either human, cynomologous macaques, mouse, or other species were used. HTRF detection was achieved using europium crypate-labeled anti-Ig monoclonal antibody (1 nM final) and allophycocyanin (APC) labeled anti-His monoclonal antibody (20 nM final). Antibodies were diluted in HTRF detection buffer and 5 μl was dispensed on top of binding reaction. The reaction was allowed to equilibrate for 30 minutes and signal (665 nm/620 nm ratio) was obtained using an EnVision fluorometer. Additional binding assays were established between PD-1-Ig/PD-L2-His (20 and 5 nM, respectively), CD80-His/PD-L1-Ig (100 and 10 nM, respectively) and CD80-His/CTLA4-Ig (10 and 5 nM, respectively). Binding/competition studies between biotinylated Compound No. 71 and human PD-L1-His were performed as follows. Macrocyclic peptide inhibitors were pre-incubated with PD-L1-His (10 nM final) for 60 minutes in 4 μl of assay buffer followed by addition of biotinylated Compound No. 71 (0.5 nM final) in 1 μl of assay buffer. Binding was allowed to equilibrate for 30 minutes followed by addition of europium crypated labeled Streptavidin (2.5 pM final) and APC-labeled anti-His (20 nM final) in 5 μl of HTRF buffer. The reaction was allowed to equilibrate for 30m and signal (665 nm/620 nm ratio) was obtained using an EnVision fluorometer.
Recombinant Proteins. Carboxyl-truncated human PD-1 (amino acids 25-167) with a C-terminal human Ig epitope tag [hPD-1 (25-167)-3S-IG] and human PD-L1 (amino acids 18-239) with a C-terminal His epitope tag [hPD-L1(19-239)-tobacco vein mottling virus protease cleavage site (TVMV)-His] were expressed in HEK293T cells and purified sequentially by recombinant Protein A affinity chromatography and size exclusion chromatography. Human PD-L2-His (Sino Biologicals), CD80-His (Sino Biologicals), CTLA4-Ig (RnD Systems) were all obtained through commercial sources.

[1] = inhibition of PD-1-Ig binding to PD-L1-TVMV-His, value given as number, read-out: HTRF IC50
[2] = inhibition of PD-1-Ig binding to PD-L1-TVMV-His, value given as range class, read-out: HTRF IC50

T1 sequence (Q9NZQ7 with tags, fused parts or gaps): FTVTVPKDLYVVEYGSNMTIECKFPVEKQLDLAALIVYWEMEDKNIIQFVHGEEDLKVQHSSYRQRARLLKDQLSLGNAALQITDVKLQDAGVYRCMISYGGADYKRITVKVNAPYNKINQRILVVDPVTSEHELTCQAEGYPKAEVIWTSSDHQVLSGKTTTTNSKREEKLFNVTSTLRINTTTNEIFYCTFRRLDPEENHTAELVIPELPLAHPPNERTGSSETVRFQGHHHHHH

CCCC[C@H]1C(=O)N(C)[C@@H](CCCC)C(=O)N[C@@H](CC(C)C)C(=O)N[C@H](C(=O)NCC(=O)N[C@@H](Cc2cn(CC[C@H](NC(=O)CCCCCCCCCCCCCCCCC(=O)O)C(=O)O)nn2)C(=O)O)CSCC(=O)N[C@@H](Cc2ccc(O)cc2)C(=O)N2CCCC[C@H]2C(=O)N[C@@H](CC(N)=O)C(=O)N2CCC[C@H]2C(=O)N[C@@H](CN)C(=O)N[C@@H](CC(C)C)C(=O)N2C[C@H](O)C[C@H]2C(=O)N[C@@H](Cc2c[nH]c3ccccc23)C(=O)N[C@@H](CCN)C(=O)N[C@@H](Cc2cn(CC(=O)O)c3ccccc23)C(=O)N1C [Example 13132] gave an IC50 [1] of 3.3 nM.
CCCC[C@H]1C(=O)N(C)[C@@H](CCCC)C(=O)N[C@@H](CCC(=O)O)C(=O)N[C@H](C(=O)NCC(=O)N[C@@H](Cc2cn(CC[C@H](NC(=O)CCCCCCCCCCCCCCCCC(=O)O)C(=O)O)nn2)C(=O)O)CSCC(=O)N[C@@H](Cc2ccc(O)cc2)C(=O)N(C)[C@@H](C)C(=O)N[C@@H](CC(N)=O)C(=O)N2CCC[C@H]2C(=O)N[C@@H](CN)C(=O)N[C@@H](CC(C)C)C(=O)N2C[C@H](O)C[C@H]2C(=O)N[C@@H](Cc2c[nH]c3ccccc23)C(=O)N[C@@H](CCN)C(=O)N[C@@H](Cc2cn(CC(=O)O)c3ccccc23)C(=O)N1C [Example 13125] gave an IC50 [2] of 10 to 99 nM.
Work on CCCC[C@H]1C(=O)N(C)[C@@H](CCCC)C(=O)N[C@@H](CC(C)C)C(=O)N[C@H](C(=O)NCC(=O)N[C@@H](Cc2cn(CCOCCOCCOCCOCCOCCOCCOCCOCCOCCOCCOCCNC(=O)CC[C@H](NC(=O)CCCCCCCCCCCCCCCCC(=O)O)C(=O)O)nn2)C(=O)O)CSCC(=O)N[C@@H](Cc2ccc(O)cc2)C(=O)N2CCCC[C@H]2C(=O)N[C@@H](CC(N)=O)C(=O)N2CCC[C@H]2C(=O)N[C@@H](CNC)C(=O)N[C@@H](CC(C)C)C(=O)N2C[C@H](O)C[C@H]2C(=O)N[C@@H](Cc2c[nH]c3ccccc23)C(=O)N[C@@H](CCN)C(=O)N[C@@H](Cc2cn(CC(=O)O)c3ccccc23)C(=O)N1C [Example 14105] yielded an IC50 [2] of 100 to 1600 nM.
CCCC[C@H]1C(=O)N(C)[C@@H](CCCC)C(=O)N[C@@H](CCC(=O)O)C(=O)N[C@H](C(=O)NCC(=O)N[C@@H](Cc2cn(CCOCCOCCOCCOC(=O)CCC(=O)Oc3c(C)c(C)c4c(c3C)CC[C@@](C)(CCC[C@H](C)CCC[C@H](C)CCCC(C)C)O4)nn2)C(=O)NCC(N)=O)CSCC(=O)N[C@@H](Cc2ccc(O)cc2)C(=O)N(C)[C@@H](C)C(=O)N[C@@H](CC(=O)O)C(=O)N2CCC[C@H]2C(=O)N[C@@H](Cc2c[nH]cn2)C(=O)N[C@@H](CCCCN)C(=O)N2C[C@H](O)C[C@H]2C(=O)N[C@@H](Cc2c[nH]c3ccccc23)C(=O)N[C@@H](CCCCN)C(=O)N[C@@H](Cc2c[nH]c3ccccc23)C(=O)N1C [Example 14060] was tested, and the IC50 was 100 to 1600 nM.
In the case of CCCC[C@H]1C(=O)N(C)[C@@H](CCCC)C(=O)N[C@@H](CC(C)C)C(=O)N[C@H](C(=O)NCC(=O)N[C@@H](CCC(=O)NCCC[C@H](NC(=O)CCCCCCCCCCCCCCCCC(=O)O)C(=O)O)C(=O)O)CSCC(=O)N[C@@H](Cc2ccc(F)cc2)C(=O)N2CCCC[C@H]2C(=O)N[C@@H](CC(=O)O)C(=O)N2CCC[C@H]2C(=O)N[C@@H](CN)C(=O)N[C@@H](CC(C)C)C(=O)N2C[C@H](O)C[C@H]2C(=O)N[C@@H](Cc2c[nH]c3ccccc23)C(=O)N[C@@H](CCN)C(=O)N[C@@H](Cc2cn(CC(=O)O)c3ccccc23)C(=O)N1C [Example 13146] ({CH2CO}-[Phe(4-F)][Pip]DP[Dap]L[Hyp]W[Dab][Trp(1-CH2COOH)][NMeNle][NMeNle]LCGE(δOrn(Nα-Octadecanedioyl))-OH; thioether N-14), the IC50 [2] is reported as 10 to 99 nM.
With CCCC[C@H]1C(=O)N(C)[C@@H](CCCC)C(=O)N[C@@H](CC(C)C)C(=O)N[C@H](C(=O)NCC(=O)N[C@@H](Cc2cn(CCOCCOCCOCCOCCOCCOCCOCCOCCOCCOCCOCCNC(=O)CCCNC(=O)CCCCCCCCCCCCCCCCC(=O)O)nn2)C(=O)O)CSCC(=O)N[C@@H](Cc2ccc(O)cc2)C(=O)N(C)[C@@H](C)C(=O)N[C@@H](CC(N)=O)C(=O)N2CCC[C@H]2C(=O)N[C@@H](CN)C(=O)N[C@@H](CC(C)C)C(=O)N2C[C@H](O)C[C@H]2C(=O)N[C@@H](Cc2c[nH]c3ccccc23)C(=O)N[C@@H](CCN)C(=O)N[C@@H](Cc2cn(CC(=O)O)c3ccccc23)C(=O)N1C [Example 14125] the IC50 [2] was 0.3 to 9.9 nM.
CCCC[C@H]1C(=O)N(C)[C@@H](CCCC)C(=O)N[C@@H](CC(C)C)C(=O)N[C@H](C(=O)NCC(=O)NCC(=O)N[C@@H](CC(=O)O)C(=O)NCCCCCCCCCCCCC(=O)O)CSCC(=O)N[C@@H](Cc2ccc(O)cc2)C(=O)N(C)[C@@H](C)C(=O)N[C@@H](CC(N)=O)C(=O)N2CCC[C@H]2C(=O)N[C@@H](CN)C(=O)N[C@@H](CC(C)C)C(=O)N2C[C@H](O)C[C@H]2C(=O)N[C@@H](Cc2c[nH]c3ccccc23)C(=O)N[C@@H](CCN)C(=O)N[C@@H](Cc2cn(CC(=O)O)c3ccccc23)C(=O)N1C [Example 11221] ({CH2CO}-Y[NMeA]NP[Dap]L[Hyp]W[Dab][Trp(1-CH2COOH)][NMeNle][NMeNle]LCGGD-{NH(CH2)12COOH}; thioether N-14) gave an IC50 [2] of 10 to 99 nM.
In the case of CCCC[C@H]1C(=O)N(C)[C@@H](CCCC)C(=O)N[C@@H](CCC(=O)O)C(=O)N[C@H](C(=O)NCC(=O)N[C@@H](Cc2cn(CC[C@H](NC(=O)CCCCCCCCCCCCCCC(=O)O)C(=O)O)nn2)C(N)=O)CSCC(=O)N[C@@H](Cc2ccc(O)cc2)C(=O)N(C)[C@@H](C)C(=O)N[C@@H](CC(=O)O)C(=O)N2CCC[C@H]2C(=O)N[C@@H](Cc2c[nH]cn2)C(=O)N[C@@H](CCC(N)=O)C(=O)N2C[C@H](O)C[C@H]2C(=O)N[C@@H](Cc2c[nH]c3ccccc23)C(=O)N[C@@H](CO)C(=O)N[C@@H](Cc2c[nH]c3ccccc23)C(=O)N1C [Example 14068], the IC50 [2] is reported as 10 to 99 nM.
For CCCC[C@H]1C(=O)N(C)[C@@H](CCCC)C(=O)N[C@@H](CC(C)C)C(=O)N[C@H](C(=O)NCCCCCCCCCCC(=O)N[C@@H](CCC(=O)O)C(=O)O)CSCC(=O)N[C@@H](Cc2ccc(O)cc2)C(=O)N(C)[C@@H](C)C(=O)N[C@@H](CC(N)=O)C(=O)N2CCC[C@H]2C(=O)N[C@@H](CN)C(=O)N[C@@H](CCC(N)=O)C(=O)N2C[C@H](O)C[C@H]2C(=O)N[C@@H](Cc2c[nH]c3ccccc23)C(=O)N[C@@H](CO)C(=O)N[C@@H](Cc2cn(CC(=O)O)c3ccccc23)C(=O)N1C [Example 11132] ({CH2CO}-Y[NMeA]NP[Dap]Q[Hyp]WS[Trp(1-CH2COOH)][NMeNle][NMeNle]LC[Aun]E-OH; thioether N-14), the IC50 [2] was 10 to 99 nM.
For CCCCCCCCCCCCCCCC(=O)N[C@@H](CCn1cc(C[C@H](NC(=O)CNC(=O)[C@@H]2CSCC(=O)N[C@@H](Cc3ccc(O)cc3)C(=O)N(C)[C@@H](C)C(=O)N[C@@H](CC(=O)O)C(=O)N3CCC[C@H]3C(=O)N[C@@H](Cc3c[nH]cn3)C(=O)N[C@@H](CCCCN)C(=O)N3C[C@H](O)C[C@H]3C(=O)N[C@@H](Cc3c[nH]c4ccccc34)C(=O)N[C@@H](CCCCN)C(=O)N[C@@H](Cc3cn(CC(=O)O)c4ccccc34)C(=O)N(C)[C@@H](CCCC)C(=O)N(C)[C@@H](CCCC)C(=O)N[C@@H](CCC(=O)O)C(=O)N2)C(N)=O)nn1)C(=O)O [Example 14072], the IC50 [1] was 8.5 nM.
For CCCC[C@H]1C(=O)N(C)[C@@H](CCCC)C(=O)N[C@@H](CC(C)C)C(=O)N[C@H](C(=O)NCC(=O)N[C@@H](CC(=O)O)C(=O)N[C@@H](CC(=O)NCCCOCCOCCOCCCNC(=O)C[C@H](NC(=O)CCCCCCCCCCCCCCC(=O)O)C(=O)O)C(=O)O)CSCC(=O)N[C@@H](Cc2ccc(O)cc2)C(=O)N(C)[C@@H](C)C(=O)N[C@@H](CC(N)=O)C(=O)N2CCC[C@@H]2C(=O)N[C@@H](CN)C(=O)N[C@@H](CC(C)C)C(=O)N2C[C@@H](O)C[C@@H]2C(=O)N[C@@H](Cc2c[nH]c3ccccc23)C(=O)N[C@@H](CCN)C(=O)N[C@@H](Cc2cn(CC(=O)O)c3ccccc23)C(=O)N1C [Example 11240] ({CH2CO}-Y[NMeA]N[dP][Dap]L[dHyp]W[Dab][Trp(1-CH2COOH)][NMeNle][NMeNle]LCGDD(X18)-OH; thioether N-14), the IC50 [1] was 10 nM.
